Measured values published in ChEMBL document CHEMBL5528039, “Discovery of a Macrocyclic Influenza Cap-Dependent Endonuclease Inhibitor” (J Med Chem, 2024).

Columns and labels:
[1] = system: Influenza A virus; test: Selectivity ratio of EC50 for antiviral activity against Influenza A virus A/PR/8/34 PA-I38T infected in MDCK cells to EC50 for antiviral activity against Influenza A virus A/PR/8/34 (H1N1) infected in MDCK cells; type: functional
[2] = system: Influenza A virus; test: Antiviral activity against Influenza A virus A/PR/8/34 PA-I38T infected in MDCK cells assessed as reduction in virus-induced cytopathic effect incubated for 5 days by CCK8 based microplate spectrophotometric analysis; type: functional, organism-based; details: for EC50: mdck; for EC90: time 5 day
[3] = system: Influenza A virus; test: Selectivity ratio of EC50 for antiviral activity against baloxavir-resistant Influenza A virus A/PR/8/34 infected in MDCK cells to EC50 for antiviral activity against Influenza A virus A/PR/8/34 (H1N1) infected in MDCK cells; type: functional
[4] = system: Influenza A virus; test: Antiviral activity against baloxavir-resistant Influenza A virus A/PR/8/34 infected in MDCK cells assessed as reduction in virus-induced cytopathic effect incubated for 5 days by CCK8 based microplate spectrophotometric analysis; type: functional, organism-based; details: for EC50: mdck; for EC90: time 5 day

SMILES	Ratio EC50 [1]	EC50 [2]	EC90 [2]	Ratio EC50 [3]	EC50 [4]	EC90 [4]
CN1C(=O)c2c(O)c(=O)ccn2N2[C@H](c3ccc(F)cc3)c3cc(F)c(F)cc3OCC[C@@H]12	14	0.193 µM	0.37 µM			
CN1C(=O)c2c(O)c(=O)ccn2N2[C@H](c3ccccc3)c3cc(F)c(F)cc3OCC[C@@H]12	9.2	0.066 µM	0.113 µM	9.2	0.066 µM	0.113 µM
CN1C(=O)c2c(O)c(=O)ccn2N2[C@H](c3ccccc3F)c3cc(F)c(F)cc3OCC[C@@H]12	7.2	0.079 µM	0.123 µM			
CN1C(=O)c2c(O)c(=O)ccn2N2[C@H](c3ccccc3)c3ccccc3OCC[C@@H]12	15	0.214 µM	0.336 µM			
CN1C(=O)c2c(O)c(=O)ccn2N2[C@H](c3ccc(F)c(F)c3)c3cc(F)c(F)cc3OCC[C@@H]12	8.4	0.211 µM	0.393 µM			
CC(C)N1C(=O)c2c(O)c(=O)ccn2N2[C@H](c3ccccc3)c3ccccc3OCC[C@@H]12 (racemic)	8.2	0.435 µM	0.675 µM			
CN1C(=O)c2c(O)c(=O)ccn2N2[C@H](c3ccccc3Br)c3cc(F)c(F)cc3OCC[C@@H]12 (racemic)	15	0.166 µM	0.344 µM			
CN1C(=O)c2c(O)c(=O)ccn2N2[C@H](c3ccccc3)c3ccc(F)c(F)c3OCC[C@@H]12 (racemic)	10	0.512 µM	0.795 µM			
O=C1c2c(O)c(=O)ccn2N([C@@H]2c3ccccc3SCc3c2ccc(F)c3F)[C@@H]2COCCN12 [BALOXAVIR]	68	0.142 µM	0.232 µM	68	0.142 µM	0.232 µM
